In patent US20110144069A1, “COMPOUNDS FOR TREATING VIRAL INFECTIONS” (priority 2006, published 2011):

What was measured:
mock-infected MT-4 cells = experiment: Compound toxicity in mock-infected cells (WST-1 assay); type: cell-based; details: toxicity measure, host cells; read-out: TC50 (concentration of compound that results in death of 50% of the host cells)
Procedure: (§1) The HTLV-1 transformed T cell line, MT-4, is highly susceptible to HIV-1 infection. Anti-HIV-1 agents were evaluated in this target cell line by protection from the HIV-induced cytopathic effect. In this assay, viability of both HIV-1 and mock-infected cells was assessed in a colorimetric assay that monitors the ability of metabolically-active cells to reduce the tetrazolium salt WST-1. Cytoprotection by antiviral compounds is indicated by the positive readout of increased WST-1 cleavage.
(§2) Briefly, exponentially growing MT-4 cells were mock-infected or batch-infected with the HIV-1 laboratory strain, NL4-3, at a multiplicity of infection of 0.0005. Following a two hour infection, the cells were washed to remove unbound virus and plated in the presence of increasing concentrations of compound. After four days incubation, cytoprotection in the infected cells and compound toxicity in mock-infected cells were analyzed using the WST-1 assay.

[1] = tested on: HIV-1 laboratory strain, NL4-3; experiment: MT-4 Cytoprotection Assay (protection from HIV-induced cytopathic effect, WST-1); type: cell-based; details: Human immunodeficiency virus 1, NL43; representative compounds; read-out: EC50 of less than about 100 nm
Procedure: MT-4 Cytoprotection Assay
as §1, §2

SMILES: C=C(C)[C@@H]1CC[C@]2(C(=O)NCc3ccc(C(=O)O)cc3)CC[C@]3(C)[C@H](CC[C@@H]4[C@@]5(C)CC[C@H](OC(=O)CC(C)(C)C(=O)O)C(C)(C)[C@@H]5CC[C@]43C)[C@@H]12 [Compound 71]
- CC50 (mock-infected MT-4 cells): ~7.7 µM

SMILES: C=C(C)[C@@H]1CC[C@]2(C(=O)NCc3ccccc3C(=O)O)CC[C@]3(C)[C@H](CC[C@@H]4[C@@]5(C)CC[C@H](OC(=O)CC(C)(C)C(=O)O)C(C)(C)[C@@H]5CC[C@]43C)[C@@H]12 [Compound 73]
- CC50 (mock-infected MT-4 cells): ~6.3 µM

SMILES: CC(C)[C@@H]1CC[C@]2(C(=O)NCCC3CCCCC3)CC[C@]3(C)[C@H](CC[C@@H]4[C@@]5(C)CC[C@H](OC(=O)CC(C)(C)C(=O)O)C(C)(C)[C@@H]5CC[C@]43C)[C@@H]12 [Compound 124]
- EC50 [1]: < 0.1 µM
